Laboratory results from patent US11440913B2, “Aminoimidazopyridazines as kinase inhibitors” (BRISTOL-MYERS SQUIBB COMPANY, priority 2017, dated 2022).
Counter-ions that a name gives are not always drawn. Like-named read-outs stand apart in the source and are kept apart here.

Legend:
[1] = system: MLKL phosphorylation in HT29-L23 human colorectal adenocarcinoma cells; experiment: MLKL Phosphorylation High-Content Assay; assay type: cell-based; settings: 6 h, necroptosis induced with TNFα, SMAC mimetic and Z-VAD, read-out: pMLKL (IC50)
Summary of the method: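 HT29-L23 cells pretreated 30 min at 37 °C with compound (6.25 to 0.106 μM final), then necroptosis induced with TNFα 35 ng/mL, SMAC mimetic 700 nM and Z-VAD 140 nM for 6 h. Fixed cells immunostained for MLKL pS358 and imaged; IC50 and Ymax from 4-parameter logistic fit.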

[2] = target: His-GST-TVMV-hRIPK1(1-324) (Homo sapiens (Human), UniProt Q13546); experiment: RIPK1 HTRF Binding Assay; settings: HTRF binding, 1 h at rt; read-out: RIPK1 (IC50)
Summary of the method: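 HTRF probe-displacement binding: 1 nM His-GST-TVMV-hRIPK1(1-324) (baculovirus construct), 90.6 nM probe, 0.2 nM anti-GST-Tb in 20 mM HEPES, 10 mM MgCl2, 0.015% Brij-35, 4 mM DTT, 0.05 mg/mL BSA. Incubated 1 h at rt; FRET 520/495 nm ratio, inhibition relative to DMSO-only wells.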

Sequence of His-GST-TVMV-hRIPK1(1-324) (Q13546 1-324): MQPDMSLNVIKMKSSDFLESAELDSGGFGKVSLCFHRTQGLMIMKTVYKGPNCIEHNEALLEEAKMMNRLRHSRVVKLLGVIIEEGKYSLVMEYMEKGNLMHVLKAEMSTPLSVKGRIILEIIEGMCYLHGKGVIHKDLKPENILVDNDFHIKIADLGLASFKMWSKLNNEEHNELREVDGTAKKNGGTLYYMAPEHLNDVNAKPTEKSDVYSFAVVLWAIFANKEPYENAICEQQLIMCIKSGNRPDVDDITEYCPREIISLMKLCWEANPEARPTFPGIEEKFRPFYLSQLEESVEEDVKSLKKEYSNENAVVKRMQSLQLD

Row | Compound | IC50 ([1]; Homo sapiens) | IC50 [2] | IC50 [1]
1 | CC(=O)Nc1cn2nc(-c3cc(F)c(C)c(C(=O)NCc4c(F)cccc4C(=O)N4CCC(F)(F)C4)c3)ccc2n1 [Example 365, N-{[2-(3,3-difluoropyrrolidine-1-carbonyl)-6-fluorophenyl]methyl}-5-{2-acetamidoimidazo [1,2-b]pyridazin-6-yl}-3-fluoro-2-methylbenzamide] | 116 nM | 37 nM | 
2 | Cc1c(F)cc(-c2ccc3nc(NC(=O)CN(C)C)cn3n2)cc1C(=O)NCC[C@H](O)c1ccc(Cl)cc1 [Example 362, N-[(3S)-3-(4-chlorophenyl)-3-hydroxypropyl]-5-{2-[2-(dimethylamino)acetamido]imidazo[1,2-b]pyridazin-6-yl}-3-fluoro-2-methylbenzamide] | 5 nM | 6 nM | 
3 | COCC(=O)Nc1cn2nc(-c3cnc(OC)c(C(=O)NCc4ccccc4OC(F)(F)F)c3)ccc2n1 [Example 3, 2-methoxy-5-[2-(2-methoxyacetamido)imidazo[1,2-b]pyridazin-6-yl]-N-{[2-(trifluoromethoxy)phenyl]methyl}pyridine-3-carboxamide] | 295 nM | 30 nM | 
4 | CC(=O)Nc1cn2nc(-c3cnc(C)c(C(=O)NCc4cc(F)cc(F)c4OC4CCOCC4)c3)ccc2n1 [Example 201, N-{[3,5-difluoro-2-(oxan-4-yloxy)phenyl]methyl}-5-{2-acetamidoimidazo[1,2-b]pyridazin-6-yl}-2-methylpyridine-3-carboxamide] | 10 nM | 6 nM | 
5 | Cc1ncc(-c2ccc3nc(NC(=O)CN4CC(F)(F)C4)cn3n2)cc1C(=O)NCC[C@@H](O)c1ccc(Cl)cc1 [Example 344, N-[(3R)-3-(4-chlorophenyl)-3-hydroxypropyl]-5-{2-[2-(3,3-difluoroazetidin-1-yl)acetamido]imidazo[1,2-b]pyridazin-6-yl}-2-methylpyridine-3-carboxamide] | 37 nM | 266 nM | 
6 | 5-{2-acetamidoimidazo[1,2-b]pyridazin- 6-yl}-2-methoxy-6-methyl-N-{[2- (trifluoromethoxy)phenyl](deutero)- methyl}pyridine-3-carboxamide [Example 295] |  | 10 nM | 23 nM
7 | COCC(=O)Nc1cn2nc(-c3cnc(OC)c(C(=O)NCc4cc(OC(F)(F)F)ccc4F)c3)ccc2n1 [Example 262, N-{[2-fluoro-5-(trifluoromethoxy)phenyl]methyl}-2-methoxy-5-[2-(2-methoxyacetamido)imidazo[1,2-b]pyridazin-6-yl]pyridine-3-carboxamide] | 74 nM | 39 nM | 
8 | CC(=O)Nc1cn2nc(-c3cc(C(=O)NCc4ccccc4OCC4CCCC4)c(C)nc3C)ccc2n1 [Example 85, N-{[2-(cyclopentylmethoxy)phenyl]methyl}-5-{2-acetamidoimidazo[1,2-b]pyridazin-6-yl}-2,6-dimethylpyridine-3-carboxamide] | 12 nM | 4 nM | 
9 | CC(=O)Nc1cn2nc(-c3cc(C(=O)NCc4cc(C(F)(F)F)ccc4F)cc(F)c3C)ccc2n1 [Example 372, 3-{2-acetamidoimidazo [1,2-b]pyridazin-6-yl}-5-fluoro-N-{[2-fluoro-5-(trifluoromethyl)phenyl]methyl}-4-methylbenzamide] | 122 nM | 13 nM | 
10 | CC(=O)Nc1cn2nc(-c3cc(C(=O)NCC[C@@H](O)c4ccc(Cl)cc4)cc(F)c3C)ccc2n1 [Example 373, N-[(3R)-3-(4-chlorophenyl)-3-hydroxypropyl]-3-{2-acetamidoimidazo [1,2-b]pyridazin-6-yl}-5-fluoro-4-methylbenzamide] | 51 nM | 11 nM | 
11 | COc1ccc(F)c(CNC(=O)c2cc(-c3ccc4nc(NC(C)=O)cn4n3)c(C)nc2C)c1 [Example 37, 5-(2-acetamidoimidazo[1,2-b]pyridazin-6-yl)-N-(2-fluoro-5-methoxybenzyl)-2,6-dimethylnicotinamide] | 208 nM | 67 nM | 
12 | CC(=O)Nc1cn2nc(-c3ccc(Cl)c(C(=O)NCC[C@@H](O)c4ccc(Cl)cc4)c3)ccc2n1 [Example 386, 2-chloro-N-[(3R)-3-(4-chlorophenyl)-3-hydroxypropyl]-5-{2-acetamidoimidazo [1,2-b]pyridazin-6-yl}benzamide] | 13 nM | 5 nM | 
13 | CC(=O)Nc1cn2nc(-c3cnc(C)c(C(=O)NCC[C@@H](O)c4ccc(Cl)cc4)c3)ccc2n1 [Example 211, N-[(3R)-3-(4-chlorophenyl)-3-hydroxypropyl]-5-{2-acetamidoimidazo[1,2-b]pyridazin-6-yl}-2-methylpyridine-3-carboxamide] | 137 nM | 62 nM | 
14 | CC(=O)Nc1cn2nc(-c3cnc(C)c(C(=O)NCc4cc(F)cc(F)c4OCC4CC4)c3)ccc2n1 [Example 214, N-{[2-(cyclopropylmethoxy)-3,5-difluorophenyl]methyl}-5-{2-acetamidoimidazo[1,2-b]pyridazin-6-yl}-2-methylpyridine-3-carboxamide] | 16 nM | 1 nM | 
15 | CC(=O)Nc1cn2nc(-c3ccc(C)c(C(=O)NCc4cc(F)ccc4-c4cnn(C5CC5)c4)c3F)ccc2n1 [Example 410, N-{[2-(1-cyclopropyl-1H-pyrazol-4-yl)-5-fluorophenyl]methyl}-3-{2-acetamidoimidazo [1,2-b]pyridazin-6-yl}-2-fluoro-6-methylbenzamide] | 77 nM | 39 nM | 
16 | CC(=O)Nc1cn2nc(-c3ccc(C)c(C(=O)NCc4cc(-c5cnn(C6CC6)c5)ccc4F)c3F)ccc2n1 [Example 409, N-{[5-(1-cyclopropyl-1H-pyrazol-4-yl)-2-fluorophenyl]methyl}-3-{2-acetamidoimidazo [1,2-b]pyridazin-6-yl}-2-fluoro-6-methylbenzamide] | 13 nM | 2 nM | 
17 | COc1ncc(-c2ccc3nc(NC(C)=O)cn3n2)cc1C(=O)NCc1ccccc1CN1CCOCC1 [Example 113, 5-{2-acetamidoimidazo[1,2-b]pyridazin-6-yl}-2-methoxy-N-({2-[(morpholin-4-yl)methyl]phenyl}methyl)pyridine-3-carboxamide, 2 TFA] |  | 38 nM | 298 nM
18 | [2H]C([2H])([2H])Oc1ncc(-c2ccc3nc(NC(C)=O)cn3n2)cc1C(=O)N[C@H](C)c1cc(OC(F)(F)F)ccc1F [Example 47, 5-{2-acetamidoimidazo[1,2-b]pyridazin-6-yl}-N-[(1R)-1-[2-fluoro-5-(trifluoromethoxy)phenyl]ethyl]-2-(D3)methoxypyridine-3-carboxamide] | 85 nM | 161 nM | 
19 | CC(=O)Nc1cn2nc(-c3ccc(C)c(C(=O)NCc4cc(C(=O)N5CCC(C)(C)C5)ccc4F)c3)ccc2n1 [Example 406, N-{[5-(3,3-dimethylpyrrolidine-1-carbonyl)-2-fluorophenyl]methyl}-5-{2-acetamidoimidazo [1,2-b]pyridazin-6-yl}-2-methylbenzamide] | 454 nM | 163 nM | 
20 | 5-{2-acetamidoimidazo[1,2-b]pyridazin- 6-yl}-N-{[2-fluoro-5- (trifluoromethoxy)phenyl]- (deutero)methyl}-2-methoxy-6- methylpyridine-3-carboxamide [Example 282] |  | 10 nM | 8 nM
21 | CC(=O)Nc1cn2nc(-c3cnc(C)c(C(=O)NCc4cc(C(F)(F)F)ccc4F)c3)ccc2n1 [Example 206, 5-{2-acetamidoimidazo[1,2-b]pyridazin-6-yl}-N-{[2-fluoro-5-(trifluoromethyl)phenyl]methyl}-2-methylpyridine-3-carboxamide, TFA] | 37 nM | 12 nM | 
22 | COc1nc(C)c(-c2ccc3nc(NC(C)=O)cn3n2)cc1C(=O)NCc1ccccc1OC(C)CO (stereo not shown) [Example 17, 5-{2-acetamidoimidazo[1,2-b]pyridazin-6-yl}-N-({2-[(1-hydroxypropan-2-yl)oxy]phenyl}methyl)-2-methoxy-6-methylpyridine-3-carboxamide] | 129 nM | 27 nM | 
23 | [2H]C([2H])(NC(=O)c1cc(-c2ccc3nc(NC(C)=O)cn3n2)cnc1C)c1cc(OC(F)(F)F)ccc1F [Example 208, 5-{2-acetamidoimidazo[1,2-b]pyridazin-6-yl}-N-{[2-fluoro-5-(trifluoromethoxy)phenyl] (deutero)methyl}-2-methylpyridine-3-carboxamide] | 5 nM | 5 nM | 
24 | COc1ncc(-c2ccc3nc(NC(C)=O)cn3n2)cc1C(=O)NCc1cc(F)cc(F)c1OCC1CCC1 [Example 97, N-{[2-(cyclobutylmethoxy)-3,5-difluorophenyl]methyl}-5-{2-acetamidoimidazo[1,2-b]pyridazin-6-yl}-2-methoxypyridine-3-carboxamide] | 2 nM | 2 nM | 
25 | Cc1ncc(-c2ccc3nc(NC(=O)CN4CCN(C)CC4)cn3n2)cc1C(=O)N[C@H](C)c1cc(C(F)(F)F)ccc1F [Example 332, N-[(1R)-1-[2-fluoro-5-(trifluoromethyl)-phenyl]ethyl]-2-methyl-5-{2-[2-(4-methylpiperazin-1-yl)acetamido]imidazo[1,2-b]pyridazin-6-yl}pyridine-3-carboxamide] | 25 nM | 308 nM | 
26 | CC(=O)Nc1cn2nc(-c3ccc(C)c(C(=O)NCC[C@@H](O)c4ccc(Cl)cc4)c3)ccc2n1 [Example 397, N-[(3R)-3-(4-chlorophenyl)-3-hydroxypropyl]-5-{2-acetamidoimidazo [1,2-b]pyridazin-6-yl}-2-methylbenzamide] | 3 nM | 3 nM | 
